# From PMC5513037, “Examining the influence of specificity ligands and ATP-competitive ligands on the overall effectiveness of bivalent kinase inhibitors” (Proteome Science, 2017)
# Legend:
# BAZ1B = molecular target: T1, BAZ1B (Homo sapiens, UniProt Q9UIG0); assay: KAM-matrix competition in K562 lysate; type: binding;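 on 0.001 uM KAM: median log10 fold change of treatment over DMSO control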;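 on 0.01 uM KAM: median log10 fold change of treatment over DMSO control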;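 on 0.1 uM KAM: median log10 fold change of treatment over DMSO control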;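 on 1 uM KAM: median log10 fold change of treatment over DMSO control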;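 on 10 uM KAM: median log10 fold change of treatment over DMSO control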
# T1 construct: endogenous in cells; host or cells: K562
# T1 sequence (Q9UIG0 1-1483): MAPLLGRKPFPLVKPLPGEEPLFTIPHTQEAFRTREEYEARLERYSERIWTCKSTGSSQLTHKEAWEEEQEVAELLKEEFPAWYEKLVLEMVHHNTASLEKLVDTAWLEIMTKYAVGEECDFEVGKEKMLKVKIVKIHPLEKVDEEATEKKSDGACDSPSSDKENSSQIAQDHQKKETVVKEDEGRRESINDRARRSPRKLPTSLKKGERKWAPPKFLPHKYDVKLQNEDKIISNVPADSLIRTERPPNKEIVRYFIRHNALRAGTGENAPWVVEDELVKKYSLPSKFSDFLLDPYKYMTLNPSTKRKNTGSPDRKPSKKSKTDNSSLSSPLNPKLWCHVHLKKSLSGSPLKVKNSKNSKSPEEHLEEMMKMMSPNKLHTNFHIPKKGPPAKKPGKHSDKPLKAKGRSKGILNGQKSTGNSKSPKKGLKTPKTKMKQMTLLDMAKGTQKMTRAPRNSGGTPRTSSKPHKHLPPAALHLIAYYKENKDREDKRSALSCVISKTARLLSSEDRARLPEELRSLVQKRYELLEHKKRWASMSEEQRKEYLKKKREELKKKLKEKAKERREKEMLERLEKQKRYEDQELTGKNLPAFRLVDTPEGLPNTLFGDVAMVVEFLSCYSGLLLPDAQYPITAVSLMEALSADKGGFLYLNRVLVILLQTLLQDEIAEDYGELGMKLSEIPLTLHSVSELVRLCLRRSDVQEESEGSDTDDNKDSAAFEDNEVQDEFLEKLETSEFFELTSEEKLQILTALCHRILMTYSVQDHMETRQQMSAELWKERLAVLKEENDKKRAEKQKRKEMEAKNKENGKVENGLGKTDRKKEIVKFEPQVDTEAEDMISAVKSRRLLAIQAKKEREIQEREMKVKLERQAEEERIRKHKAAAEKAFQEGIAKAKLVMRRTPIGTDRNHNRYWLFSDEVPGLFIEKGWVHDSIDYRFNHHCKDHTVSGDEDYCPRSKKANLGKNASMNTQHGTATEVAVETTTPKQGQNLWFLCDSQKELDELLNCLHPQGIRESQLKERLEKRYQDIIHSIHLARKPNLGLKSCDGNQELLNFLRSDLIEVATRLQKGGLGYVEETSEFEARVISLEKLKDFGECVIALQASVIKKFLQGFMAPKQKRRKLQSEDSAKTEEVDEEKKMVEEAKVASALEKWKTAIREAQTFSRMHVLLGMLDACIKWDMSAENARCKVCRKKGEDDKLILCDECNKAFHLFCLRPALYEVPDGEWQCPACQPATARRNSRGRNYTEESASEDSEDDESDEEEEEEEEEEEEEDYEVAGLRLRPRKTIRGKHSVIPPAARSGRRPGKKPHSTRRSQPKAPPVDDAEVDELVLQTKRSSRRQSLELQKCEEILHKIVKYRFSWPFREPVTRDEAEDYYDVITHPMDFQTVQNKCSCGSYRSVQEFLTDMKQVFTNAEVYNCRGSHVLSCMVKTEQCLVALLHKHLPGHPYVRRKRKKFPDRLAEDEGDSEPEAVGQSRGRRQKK
# Method: (§1) Supplement 12953_2017_125_MOESM1_ESM.zip/MS_Supp Info.xlsx, sheet "KAM" | column: 10 uM KAM; 1 uM KAM; 0.1 uM KAM; 0.01 uM KAM; 0.001 uM KAM; RB50
# TAOK2 = molecular target: T2, TAOK2 (Homo sapiens, UniProt Q9UL54); assay: KAM-matrix competition in K562 lysate; type: binding;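 on 0.001 uM KAM: median log10 fold change of treatment over DMSO control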;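 on 0.01 uM KAM: median log10 fold change of treatment over DMSO control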;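 on 0.1 uM KAM: median log10 fold change of treatment over DMSO control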;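 on 1 uM KAM: median log10 fold change of treatment over DMSO control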;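 on 10 uM KAM: median log10 fold change of treatment over DMSO control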
# T2 construct: endogenous in cells; host or cells: K562
# T2 sequence (Q9UL54 1-1235): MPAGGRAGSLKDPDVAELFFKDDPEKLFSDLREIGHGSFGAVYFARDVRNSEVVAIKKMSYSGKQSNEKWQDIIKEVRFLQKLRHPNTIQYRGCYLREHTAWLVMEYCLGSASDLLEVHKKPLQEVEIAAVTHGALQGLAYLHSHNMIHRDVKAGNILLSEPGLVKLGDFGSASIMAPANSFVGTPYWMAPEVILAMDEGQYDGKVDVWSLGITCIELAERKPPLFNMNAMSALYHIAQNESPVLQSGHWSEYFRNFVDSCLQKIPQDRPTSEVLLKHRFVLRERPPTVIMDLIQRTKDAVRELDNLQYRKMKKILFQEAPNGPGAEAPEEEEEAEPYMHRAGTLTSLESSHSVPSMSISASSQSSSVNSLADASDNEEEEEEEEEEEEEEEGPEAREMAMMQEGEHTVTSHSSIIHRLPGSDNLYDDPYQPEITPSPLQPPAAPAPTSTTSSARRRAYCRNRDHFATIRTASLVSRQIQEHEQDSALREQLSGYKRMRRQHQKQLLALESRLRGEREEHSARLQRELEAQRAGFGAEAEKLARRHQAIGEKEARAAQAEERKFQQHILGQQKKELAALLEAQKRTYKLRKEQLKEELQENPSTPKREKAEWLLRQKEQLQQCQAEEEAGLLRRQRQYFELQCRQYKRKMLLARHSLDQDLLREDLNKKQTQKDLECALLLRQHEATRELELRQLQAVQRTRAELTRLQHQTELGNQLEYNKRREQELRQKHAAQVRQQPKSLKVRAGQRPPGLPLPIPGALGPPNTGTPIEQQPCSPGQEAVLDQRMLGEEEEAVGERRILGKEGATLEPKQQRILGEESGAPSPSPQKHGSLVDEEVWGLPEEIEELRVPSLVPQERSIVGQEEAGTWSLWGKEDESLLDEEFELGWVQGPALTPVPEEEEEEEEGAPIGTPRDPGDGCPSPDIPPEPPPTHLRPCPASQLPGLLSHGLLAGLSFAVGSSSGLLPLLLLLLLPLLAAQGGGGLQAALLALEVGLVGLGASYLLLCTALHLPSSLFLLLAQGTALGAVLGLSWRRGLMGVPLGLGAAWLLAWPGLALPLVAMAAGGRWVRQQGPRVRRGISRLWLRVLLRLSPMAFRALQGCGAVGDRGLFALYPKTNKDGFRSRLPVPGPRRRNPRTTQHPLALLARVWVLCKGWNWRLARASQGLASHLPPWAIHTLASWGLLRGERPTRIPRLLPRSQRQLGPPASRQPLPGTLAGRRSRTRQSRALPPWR
# Method: as §1
# [1] = KAM 0.001-10 uM, read-out: RB50 (the source's name)
smiles,measurement,setting,value
N#CCc1ccc(Nc2nc(NCCCN)cc(Nc3cc(C4CC4)[nH]n3)n2)cc1 [KAM],IC50,BAZ1B; [1],> 10 µM
same,0.001 uM KAM,BAZ1B; relative to 0 uM KAM = 0,-0.04632
same,0.01 uM KAM,BAZ1B; relative to 0 uM KAM = 0,-0.04267
same,0.1 uM KAM,BAZ1B; relative to 0 uM KAM = 0,-0.03143
same,1 uM KAM,BAZ1B; relative to 0 uM KAM = 0,-0.000154
same,10 uM KAM,BAZ1B; relative to 0 uM KAM = 0,-0.05532
same,IC50,TAOK2; [1],6.63 µM
same,0.001 uM KAM,TAOK2; relative to 0 uM KAM = 0,-0.0603
same,0.01 uM KAM,TAOK2; relative to 0 uM KAM = 0,-0.04102
same,0.1 uM KAM,TAOK2; relative to 0 uM KAM = 0,-0.1359
same,1 uM KAM,TAOK2; relative to 0 uM KAM = 0,-0.1664
same,10 uM KAM,TAOK2; relative to 0 uM KAM = 0,-0.2974
